Measured values published in patent US20220306587A1, “COMPOUNDS AND USE THEREOF FOR THE TREATMENT OF INFECTIOUS DISEASES AND CANCER” (AC BIOSCIENCE SA, priority 2019, published 2022).
Blank lines part the entries; values can stand above or below the compound they belong to.

Key:
[1] = target: T1, recombinant human Pyridoxal kinase (PDXK) (Homo sapiens, UniProt O00764); test: In vitro phosphorylation by recombinant human pyridoxal kinase (ADP formation, ADPglo luminescence); format: biochemical; conditions: 200 μM compound, 10 μg/ml rhPDXK, 1 mM ATP, 1 hour at 37° C.; FIG. 2
T1 sequence (O00764 1-312): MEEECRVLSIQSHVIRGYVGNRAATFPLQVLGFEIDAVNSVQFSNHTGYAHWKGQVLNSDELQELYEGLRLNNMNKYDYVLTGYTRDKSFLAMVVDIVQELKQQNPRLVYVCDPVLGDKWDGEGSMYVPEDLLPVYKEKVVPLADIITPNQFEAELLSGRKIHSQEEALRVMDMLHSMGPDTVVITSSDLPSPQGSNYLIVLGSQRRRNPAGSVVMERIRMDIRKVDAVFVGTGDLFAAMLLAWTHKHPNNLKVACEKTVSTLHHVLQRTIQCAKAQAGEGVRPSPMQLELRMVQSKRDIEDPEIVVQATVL
Protocol: ACB1906, A6770, 4-DOP (200 μM) and pyridoxal HCL (1 mM) were incubated with 10 μg/ml rhPDXK for 1 hour at 37° C. in the presence of 1 mM ATP containing—10 mM HEPES buffer with 0.05% Triton X-100, 0.01% Plurogenic F127, 25 μM Na3VO4 and 250 μM MgCl2. ADP formation was measured using the luminescence-based ADPglo kit from Promega. Statistical significance determined by Anova. *denotes p<0.05.
ACB1906's ability to be phosphorylated by recombinant human Pyridoxal kinase (PDXK) in vitro was compared to the structurally similar known imidazole S1PL inhibitor A6770, the PDXK and S1PL non-specific inhibitor 4-deoxypyridoxine (4-DOP) and the natural pyridoxal ligand. […] Increased phosphorylation of thiazole compounds confers an advantage in therapeutic applications as this would be a limiting step for its ability to effect a therapeutically relevant modulation in S1P levels.

[2] = target: T1, recombinant human Pyridoxal kinase (PDXK); conditions: already reported; cited from earlier work
[3] = target: T2, S1P lyase (Mus musculus, UniProt Q8R0X7); conditions: administered to mice; cited from earlier work
T2 construct: host or cells: mice (in vivo)
T2 sequence (Q8R0X7 1-568): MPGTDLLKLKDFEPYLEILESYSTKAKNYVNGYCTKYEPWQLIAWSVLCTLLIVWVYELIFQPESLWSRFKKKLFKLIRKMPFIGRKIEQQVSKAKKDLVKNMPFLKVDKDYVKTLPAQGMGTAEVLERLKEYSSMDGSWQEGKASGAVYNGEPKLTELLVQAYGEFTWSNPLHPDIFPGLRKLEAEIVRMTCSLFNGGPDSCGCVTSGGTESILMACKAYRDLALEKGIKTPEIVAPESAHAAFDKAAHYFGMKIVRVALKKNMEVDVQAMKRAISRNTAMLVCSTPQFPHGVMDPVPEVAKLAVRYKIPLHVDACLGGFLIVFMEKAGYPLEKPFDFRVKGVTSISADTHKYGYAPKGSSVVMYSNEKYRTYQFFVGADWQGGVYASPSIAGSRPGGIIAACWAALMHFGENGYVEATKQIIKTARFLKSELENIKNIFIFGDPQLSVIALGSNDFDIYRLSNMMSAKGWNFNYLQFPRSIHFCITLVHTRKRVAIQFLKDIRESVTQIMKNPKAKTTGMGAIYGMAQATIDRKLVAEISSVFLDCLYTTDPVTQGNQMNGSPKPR

ability to be phosphorylated (ADP formation) in comparison to A6770 [1]: ~2 fold
Structure (SMILES): CC(=O)c1nc(CO)cs1 [Compound 6]

Structure (SMILES): CC(=O)c1nc(CO)c[nH]1 [Compound A6770, 1-(4-(Hydroxymethyl)-1H-imidazol-2-yl)ethan-1-one]
phosphorylation by PDXK to A6770-P [2]: reported to phosphorylate

Structure (SMILES): CC(=O)c1nc([C@@H](O)[C@H](O)[C@H](O)CO)c[nH]1 [THI, 1-(4-((1R,2S,3R)-1,2,3,4-Tetrahydroxybutyl)-1H-imidazol-2-yl)ethan-1-one]
S1P lyase activity [3]: inhibits S1P lyase activity
